Data: patent US20120295920A1, “5-AMINO-4-HYDROXYPENTOYL AMIDES” (priority 2009, published 2012)
pEC50: −log10 of the molar value. Read-outs that look alike come from different tables or passages of the source.

Columns and labels:
[1] = tested on: HIV-1 IIIB; assay: 50% HS-Rezazurin: antiviral assay in the presence of 50% human serum, MT-4 cells, resazurin cell viability; format: cell-based
Method in brief: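 MT-4 cells infected with HIV-1 IIIB (MOI 0.001 to 0.01 CCID50/cell) for 1 h, washed, then plated onto serial compound dilutions in 50% human serum (10% FCS alternative). After 4 days, EC50 derived from resazurin cell viability.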

[2] = General toxicity assay on mock-infected MT4 cells with CMV-EGFP reporter (CC50); format: cell-based; settings: human
[3] = tested on: HIV-1 Strain B (M046I, I050V); assay: microbe, parasite or virus in culture; format: cell-based
Method in brief: (§1)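 MT4 cells stably carrying an HIV LTR-driven EGFP reporter (150,000 cells/ml) were infected at MOI 0.0025 with or without inhibitor dilutions. Replication was read either as GFP fluorescence on day 3 post-infection or as cell viability by resazurin on day 4.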

[4] = tested on: HIV-1 Strain A (M046I, I084V); assay: microbe, parasite or virus in culture; format: cell-based
Method in brief: as §1

[5] = tested on: HIV-1 Strain C (G048G/V, V082A); assay: microbe, parasite or virus in culture; format: cell-based
Method in brief: as §1

[6] = tested on: HIV-1 wild-type strain; assay: General antiviral assay, cell-based virus replication in MT4-LTR-EGFP cells, wild-type strain; settings: wild-type strain IIIB, MT4-LTR-EGFP cells
Method in brief: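 HIV LTR-driven EGFP reporter MT4 cells (150,000 cells/ml) infected at MOI 0.0025 with or without inhibitor at various concentrations. Read-out either GFP fluorescence on day 3 post-infection or resazurin cell viability on day 4.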

[7] = tested on: mock-infected MT4 cells; assay: General toxicity assay on mock-infected MT4 cells with CMV-EGFP reporter (CC50); format: cell-based
[8] = Human immunodeficiency virus 1, IIIB, MT4, 96 h
[9] = MT4LTR cells, read-out: TOX-MT4LTR (CC50)
[10] = Human immunodeficiency virus 1, read-out: B EC50
[11] = Human immunodeficiency virus 1, read-out: A EC50
[12] = Human immunodeficiency virus 1, read-out: C EC50
[13] = mock-infected MT4 cells with CMV-EGFP reporter, read-out: TOX-MT4CMV (CC50)
[14] = clinical isolate Strain B, read-out: B EC50
[15] = clinical isolate Strain A, read-out: A EC50
[16] = clinical isolate Strain C, read-out: C EC50

| Structure (SMILES) | pEC50 [1, 8] | CC50 [2, 9] | pEC50 [3, 10] | pEC50 [4, 11] | pEC50 [5, 12] | pEC50 ([6]; Human immunodeficiency virus 1) | melting point | CC50 [2, 13] | pEC50 [1] | CC50 [7, 9] | pEC50 [3, 14] | pEC50 [4, 15] | pEC50 [5, 16] | pEC50 [6] | CC50 [7, 13] |
| --- | --- | --- | --- | --- | --- | --- | --- | --- | --- | --- | --- | --- | --- | --- | --- |
| CN(C)c1ccc(-c2ccc(C[C@H](NC(=O)O[C@H]3CO[C@H]4OCC[C@H]43)[C@@H](O)C[C@@H](Cc3ccccc3F)C(=O)N[C@H]3c4cc(Cl)ccc4OC[C@H]3O)cc2)cn1 [Compound 79] | 7.89 | > 32000 nM | 9.00 | 8.96 | 9.15 | 8.77 | – | – | – | – | – | – | – | – | – |
| COC(=O)N[C@H](C(=O)N[C@@H](Cc1ccc(-c2ccc(N(C)C)nc2)cc1)[C@@H](O)C[C@@H](Cc1ccccc1F)C(=O)N[C@H]1c2cc(F)cc(Cl)c2OC[C@H]1O)C(C)(C)C [Compound 52] | 8.21 | > 32000 nM | 9.05 | 8.92 | 9.15 | 8.74 | 255.44 °C | – | – | – | – | – | – | – | – |
| COC(=O)N[C@H](C(=O)N[C@@H](Cc1ccc(-c2cnc(C(C)C)s2)cc1)[C@@H](O)C[C@@H](Cc1ccccc1F)C(=O)N[C@H]1c2ccccc2OC[C@H]1O)C(C)(C)C [Compound 38] | 7.42 | – | 8.44 | 8.36 | 8.59 | 8.15 | – | 10000 nM | – | – | – | – | – | – | – |
| COC(=O)N[C@H](C(=O)N[C@@H](Cc1ccc(-c2ccc(OC)nc2)cc1)[C@@H](O)C[C@@H](Cc1ccccc1F)C(=O)N[C@H]1c2ccsc2CC[C@H]1O)C(C)(C)C [Compound 93] | 8.46 | > 32000 nM | 9.22 | 9.10 | 9.40 | 8.89 | – | > 32000 nM | – | – | – | – | – | – | – |
| CNC(=O)[C@@H](NC(=O)[C@H](Cc1ccccc1F)C[C@H](O)[C@H](Cc1ccc(-c2ccc(N(C)C)nc2)cc1)NC(=O)[C@@H](NC(=O)OC)C(C)(C)C)C(C)(C)C [Compound 90] | 7.87 | – | 8.59 | 8.32 | 8.55 | 8.33 | – | > 32000 nM | – | – | – | – | – | – | – |
| COC(=O)N[C@H](C(=O)N[C@@H](Cc1ccc(-c2ccc(OC)nc2)cc1)[C@@H](O)C[C@@H](Cc1ccccc1F)C(=O)N[C@H]1[C@H](C)CCC[C@H]1O)C(C)(C)C [Compound 96] | 8.70 | > 32000 nM | 9.40 | 9.15 | 9.30 | 9.05 | – | – | – | – | – | – | – | – | – |
| COC(=O)N[C@H](C(=O)N[C@@H](Cc1ccc(-c2ccc(OC)nc2)cc1)[C@@H](O)C[C@@H](Cc1cccc(OC(F)(F)F)c1)C(=O)N[C@H]1c2cc(F)ccc2OC[C@H]1O)C(C)(C)C [Compound 64] | 7.82 | > 32000 nM | 8.80 | 8.52 | 8.89 | 8.59 | – | – | – | – | – | – | – | – | – |
| COC(=O)N[C@H](C(=O)N[C@@H](Cc1ccc(-c2ccc(N(C)C)nc2)cc1)[C@@H](O)C[C@@H](Cc1ccccc1F)C(=O)N[C@H]1c2cc(Cl)cc(F)c2OC[C@H]1O)C(C)(C)C [Compound 60] | – | – | – | – | – | – | – | – | 7.60 | 10000 nM | 8.72 | 8.59 | 8.92 | 8.39 | – |
| COC(=O)N[C@H](C(=O)N[C@@H](Cc1ccc(-c2cc(C)nc(C)c2)cc1)[C@@H](O)C[C@@H](Cc1cccc(Cl)c1)C(=O)N[C@H]1c2ccccc2OC[C@H]1O)C(C)(C)C [Compound 4] | 7.51 | – | 8.41 | 8.41 | 8.57 | 8.25 | – | > 32000 nM | – | – | – | – | – | – | – |
| COc1ccc(-c2ccc(C[C@H](NC(=O)O[C@H]3CO[C@H]4OCC[C@H]43)[C@@H](O)C[C@@H](Cc3cccc(OC(F)(F)F)c3)C(=O)N[C@H]3c4cc(Cl)ccc4OC[C@H]3O)cc2)cn1 [Compound 73] | – | – | – | – | – | – | – | – | 8.04 | > 32000 nM | 8.39 | 8.43 | 8.72 | 8.48 | – |
| COC(=O)N[C@H](C(=O)N[C@@H](Cc1ccc(-c2cnc(C(C)C)s2)cc1)[C@@H](O)C[C@@H](Cc1ccccc1F)C(=O)N[C@H]1c2cc(Cl)ccc2OC[C@H]1O)C(C)(C)C [Compound 32] | 7.54 | – | 8.43 | 8.30 | 8.51 | 8.23 | – | 2200 nM | – | – | – | – | – | – | – |
| COC(=O)NC(C(=O)NC(Cc1ccc(-c2ccc(OC)nc2)cc1)C(O)CC(Cc1ccccc1F)C(=O)NC1c2cc(C)cc(F)c2OCC1O)C(C)(C)C (stereo not drawn) [Compound 101] | – | – | – | – | – | – | – | – | 8.01 | > 32000 nM | 8.62 | 8.60 | 8.77 | 8.55 | – |
| COC(=O)NC(C(=O)NC(Cc1ccc(-c2ccc(OC)nc2)cc1)C(O)CC(Cc1ccccc1F)C(=O)NC1c2ccccc2OCC1O)C(C)(C)C (stereo not drawn) [Compound 16] | – | – | – | – | – | – | – | – | 8.18 | – | 8.89 | 8.70 | 8.96 | 8.60 | > 32000 nM |
| COC(=O)NC(C(=O)NC(Cc1ccc(-c2ccc(OC)nc2)cc1)C(O)CC(Cc1ccccc1F)C(=O)NC1C(C)CCC1O)C(C)(C)C (stereo not drawn) [Compound 99] | – | – | – | – | – | – | – | – | 8.48 | > 32000 nM | 9.22 | 8.77 | 9.05 | 8.96 | – |
| COC(=O)N[C@H](C(=O)N[C@@H](Cc1ccc(-c2ccc(N(C)C)nc2)cc1)[C@@H](O)C[C@@H](Cc1ccccc1F)C(=O)N[C@H]1[C@H](C)CC[C@H]1O)C(C)(C)C [Compound 87] | – | – | – | – | – | – | – | – | 7.84 | – | 8.72 | 8.10 | 8.27 | 8.33 | > 32000 nM |
| COc1ccc(-c2ccc(C[C@H](NC(=O)O[C@H]3CO[C@H]4OCC[C@H]43)[C@@H](O)C[C@@H](Cc3ccccc3Cl)C(=O)N[C@H]3c4cc(F)ccc4OC[C@H]3O)cc2)cn1 [Compound 77] | – | – | – | – | – | – | – | – | 8.19 | > 32000 nM | 9.00 | 8.80 | 9.15 | 8.72 | – |
| COC(=O)N[C@H](C(=O)N[C@@H](Cc1ccc(-c2ccc(OC)nc2)cc1)[C@@H](O)C[C@@H](Cc1ccccc1Cl)C(=O)N[C@H]1[C@H](C)CCC[C@H]1O)C(C)(C)C [Compound 91] | – | – | – | – | – | – | – | – | 8.49 | 16000 nM | 9.15 | 8.59 | 9.00 | 8.96 | 17000 nM |
| COC(=O)N[C@H](C(=O)N[C@@H](Cc1ccc(-c2cnc(OC)nc2)cc1)[C@@H](O)C[C@@H](Cc1ccccc1F)C(=O)N[C@H]1c2cc(Cl)ccc2OC[C@H]1O)C(C)(C)C [Compound 48] | – | – | – | – | – | – | – | – | 8.12 | > 32000 nM | 8.66 | 8.59 | 8.89 | 8.42 | – |
| CN(C)c1ccc(-c2ccc(C[C@H](NC(=O)[C@@H](NC(=O)C3(C#N)CC3)C(C)(C)C)[C@@H](O)C[C@@H](Cc3ccccc3F)C(=O)N[C@H]3c4cc(F)ccc4OC[C@H]3O)cc2)cn1 [Compound 53] | 8.02 | > 32000 nM | 8.70 | 8.39 | 8.70 | 8.64 | – | – | – | – | – | – | – | – | – |
| COC(=O)N[C@H](C(=O)N[C@@H](Cc1ccc(-c2cnc(C)s2)cc1)[C@@H](O)C[C@@H](Cc1ccccc1F)C(=O)N[C@H]1[C@H](C)CC[C@H]1O)C(C)(C)C [Compound 83] | – | – | – | – | – | – | – | – | 7.84 | – | 8.60 | 8.08 | 8.57 | 8.40 | > 32000 nM |
